# Molecular target: T1, human 5-HT2A receptor (Homo sapiens, UniProt P28223)
# T1 construct: expressed in transfected cells; host or cells: COS7 cells, transient transfection, pCMV vector; crude membranes
# Assay: [125I]DOI radioligand binding assay
# Conditions: 0.5 nM [125I]DOI, membranes of COS7 cells transfected with human 5-HT2A receptor
# Protocol: Crude membrane pellets were stored at −80° C. until used for radioligand binding assays.
# T1 sequence (P28223 whole entry): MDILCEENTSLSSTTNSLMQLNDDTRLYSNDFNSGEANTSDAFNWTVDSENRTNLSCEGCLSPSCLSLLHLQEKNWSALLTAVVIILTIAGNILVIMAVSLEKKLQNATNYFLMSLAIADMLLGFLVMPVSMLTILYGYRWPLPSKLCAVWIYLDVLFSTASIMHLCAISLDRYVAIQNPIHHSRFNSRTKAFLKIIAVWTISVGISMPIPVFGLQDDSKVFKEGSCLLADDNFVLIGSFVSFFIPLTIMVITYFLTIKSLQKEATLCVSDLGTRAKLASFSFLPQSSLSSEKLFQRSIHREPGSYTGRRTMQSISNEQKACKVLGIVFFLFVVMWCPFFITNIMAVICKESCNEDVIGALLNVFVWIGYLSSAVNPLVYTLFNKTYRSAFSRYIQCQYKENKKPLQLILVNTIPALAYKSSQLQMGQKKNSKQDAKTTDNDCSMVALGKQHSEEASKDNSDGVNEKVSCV
row,Compound,IC50 [µM]
1,"CC(C)COC(=O)Nc1ccc(OCCN2CCCC2)c(-c2c(Br)cnn2C)c1 [Compound 23, [3-(4-Bromo-2-methyl-2H-pyrazol-3-yl)-4-(2-pyrrolidin-1-yl-ethoxy)-phenyl]-carbamic acid isobutyl ester]",0.0011
2,"Cn1nccc1-c1cc(NC(=O)NCc2ccc(Cl)cc2)ccc1OCCN1CCCCC1 [Compound 45, 1-(4-Chloro-benzyl)-3-[3-(2-methyl-2H-pyrazol-3-yl)-4-(2-piperidin-1-yl-ethoxy)-phenyl]-urea]",0.0102
3,"Cn1nccc1-c1cc(NC(=O)Cc2ccc(F)cc2)ccc1OCCN1CCOCC1 [Compound 160, 2-(4-Fluoro-phenyl)-N-[3-(2-methyl-2H-pyrazol-3-yl)-4-(2-morpholin-4-yl-ethoxy)-phenyl]-acetamide]",0.0137

# From patent US20070244086A1, “3-Phenyl-Pyrazole Derivatives as Modulators of the 5-Ht2A Serotonin Receptor Useful for the Treatment of Disorders Related Thereto” (Arena Pharmaceuticals, Inc., priority 2004, published 2007)
